What was measured:
[1] = tested on: normal human skin fibroblasts cell line ATCC CRL 1501; test: MTT assay, normal skin fibroblasts; type: cell-based; details: Skin fibroblast, similar manner to HTB 41 assay
Description: The MTT assay was used as a model to measure the inhibitory effects of the compounds of Formula I. The MTT assay is considered the most convenient modern assay for the determination of cell viability and cell proliferation. […] The MTT assay was performed according to manufacturer's instructions as outlined below.
The cultures were returned to the incubator for 2±0.1 hours. Then the medium was removed from each well and placed into a clean microwell plate for temporary storage. A volume of 0.1 ml of color development solution (Solution C, isopropanol with 0.04M HCl, Chemicon MTT Assay kit, Chemicon International Inc., Temecula, Calif.) was added to each new microwell. […] The absorbance at 540 nm wavelength was determined in a microwell plate reader within two hours of the final preparation of the plates.
The absorbance at 540 nm was recorded for each well by the microwell plate reader after the instrument was zeroed against the blank controls for each plate. The mean absorbance for each test condition was calculated and compared to the mean absorbance for the zero-dose wells in order to obtain percent values. […]

[2] = tested on: aminoacyl-tRNA synthetases (aaRS) isolated from HeLa cells; test: IC50 determination, aaRS charging and trichloroacetic acid precipitation assay, aaRS partially purified from HeLa cell extracts; type: biochemical; details: preincubation 20 minutes at 25° C., reaction 5-20 minutes
Description: IC50 determinations for the aminoacyl-tRNA synthetases (aaRS) isolated from HeLa cells were carried out using a modification of the aaRS charging and trichloroacetic acid precipitation assay described previously (see examples: D. Kern et. al., Biochemie, 61, 1257-1272 (1979) and J. Gilbart et. al. Antimicrobial Agents and Chemotherapy, 37(1), 32-38 (1993)). […] For practical purposes, the minimal acceptable value is approximately 2000 cpm per 10 minute reaction. The final dilution of the HeLa extract in the assays for the aaRS enzymes varies from 50 to 1200-fold.
Test compounds were typically present as serial dilutions in concentrations ranging from 0.35 nM to 35 μM. Test compound solutions were prepared by dissolving test compounds in 100% dimethyl sulfoxide and diluting to the final concentration with 50 mM HEPES, pH 7.5. IC50 determinations were typically performed in duplicate with each experiment containing 4-8 concentrations of test compound and with duplicate controls containing no inhibitor.
The reaction was incubated at 25° C. for 5-20 minutes. At specified time points a 15 microliter aliquot was removed and added to a well of a Millipore filtration plate (Multiscreen-FB, MAFB NOB 10) containing 100 microliters of cold 5% (wt/vol) trichloroacetic acid. Trichloroacitic acid precipitable material was collected by filtration on a Millipore Multiscreen filtration station, washed twice with cold 5% trichloroacetic acid, twice with water, and dried. Plates were typically allowed to air dry for several hours or baked at 50° C. in a vacuum oven for 30 minutes. The radioactivity on the dried plates was quantitated by the addition of Packard Microscint-20 to the wells and counting with a Packard TopCount scintillation counter.
Inhibitor activity typically was reported as a percentage of the control aaRS activity. […] The IC50 (in nM, Hela Cells) values of representative compounds of the present invention are listed in column 5 of Table I.

[3] = Acute toxicity in the mouse, intraperitoneal
Description: Six groups containing 5 CD-1 female mice (Charles River Lab, Mass.) weighing 19-23 g were used in the experiment. Water and Agway rodent chow were provided ad libitum throughout the study. The laboratory animals were handled according to the institutional animal husbandry Standard Operating Procedures.
The solution was filtered with 0.2 μm Nalgene syringe filter and then further diluted serially with normal saline by 5-fold (0.6 ml to 3.0 ml) to 0.016 mg/ml. Group 1 animals were injected intraperitoneally (i.p.) with 10 ml/kg normal saline as negative controls. Groups 2 to 6 were given Compound XIV i.p. at 100, 20, 4, 0.8 and 0.16 mg/kg, respectively.
The LD50 of the compound was calculated by the Method of Probits (See Probit Analysis, 3rd Edition, D. J. Finney, Cambridge University Press, Cambridge, 1971). All surviving animals were sacrificed after the last observation on seventh day post-treatment.

[4] = type: in vitro ADME, human
Description: Five formulations of Compound XIV were prepared for in vitro study. The formulations are represented in Table III
Franz static diffusion chambers were filled with a 4% BSA isotonic buffered saline and equilibrated to a temperature of 37° C. by a circulating water pump. Excised human cadaver skin (~0.2 mm thickness), which is either intact or tape-stripped, is placed onto each chamber.
The test formulations containing non-radioactive Compound XIV were spiked with tritiated Compound XIV. The specific radioactivity was about 0.05 μCi/mg test formulation. Spiked formulations were applied to the skin surface. The specific radioactivity in the stratum corneum, epidermis, dermis and the reservoir were measured at 1, 3, 6 and 24 h time points by liquid scintillation counting, to investigate cumulative penetration at each time point. The specific activity is expressed as a percentage relative to the total recovery from the reservoir, skin wipes, and the respective skin layers at the end of each experiment.
Each of the five formulations were tested on intact skin (5 replicates each) and tape-stripped skin (only in one diffusion cell) to investigate cumulative penetration at 0, 1, 3, 6, and 24 hours and tissue recovery was measured at 24 hours. […]

[5] = tested on: human epidermoid carcinoma cell line A-253 (ATCC HTB 41); test: MTT assay, human epidermoid carcinoma cell line; type: cell-based; details: A253, MTT assay, exposure 72 hours, plot extended by eye for compounds active at lowest dose, read-out: IC50 Human Epidermoid Carcinoma Cells ATCC # HTB 41
Description: The MTT assay was used as a model to measure the inhibitory effects of the compounds of Formula I. The MTT assay is considered the most convenient modern assay for the determination of cell viability and cell proliferation. An MTT assay kit is commercially available (Chemicon International Inc., Temecula, Calif.). The MTT assay was performed according to manufacturer's instructions as outlined below.
A human epidermoid carcinoma cell line, designated as A-253 (ATCC HTB 41), was obtained in frozen vials from the American Type Culture Collection, Rockville, Md. Monolayer cultures were established from the vials by growth in RPMI 1640 medium supplemented with 10% fetal bovine serum (heat-inactivated), 2 mM L-glutamine, and pen-strep (100 units/ml; 100 μg/ml). The cultures were incubated at 37±1.5° C. in 5±1% CO2 in humidified air and were passaged weekly to avoid overgrowth. The laboratory cultures used for the present study were at passage seven after receipt of frozen stocks from ATCC.
Compounds of Formula I in powder form were stored at room temperature in plastic micro centrifuge tubes. Each tube was placed in a plastic bag containing desiccant. Each test compound was prepared as a 2 mg/ml solution in RPMI 1640 medium (non-supplemented) on the day of use, and the appropriate dilutions were prepared with the same vehicle.
Each compound was handled by sterile techniques in Class II, Type B biological safety cabinets.
The reference control compound was methotrexate at concentrations of 0.5 μg/ml to 50 μg/ml. A 1 mg/ml stock was prepared on the day of dosing and diluted to the appropriate concentrations using RPMI 1640 medium (non-supplemented).
A blank control was included in the MTT assay in order to determine the absorbance associated with the absence of any cells. This control was RPMI 1640 culture medium carried through the same procedures used to culture the cells in the microwell plates and to conduct the MTT assay color development. The microwell plate reader was zeroed against the blank control prior to recording the absorbance in the test wells.
Laboratory monolayer cultures of A-253 cells were trypsinized and seeded at a concentration of 24,000 cells in 0.05 ml of complete RPMI 1640 culture medium per well in 96-well plates. Eight wells in a column were seeded for each test condition. The blank control was prepared by adding 0.05 ml of culture medium (no cells) to 8 wells in the first column of each plate. A separate microwell plate was used for each compound of Formula I.
The test compound treatments were initiated immediately after seeding the cells by adding 0.05 ml of treatment medium to each microwell. Ten different test compound concentrations were prepared in culture medium (without serum), and each concentration was applied to a volume of eight wells on the appropriate plate. The final concentrations in the wells were 1000, 500, 250, 100, 50, 25, 10, 5, 2.5, and 1 μg/ml.
An untreated (zero-dose) condition was included as a column of 8 wells on each plate. The zero-dose and blank control wells received 0.05 ml of culture medium (without serum). The microwell plates were placed in an incubator at 37±1.5° C. in 5% CO2 in humidified air for an exposure period of 72±0.5 hours.
After the exposure period, 0.1 ml of MTT dye solution (0.5 mg/ml in serum free RPMI 1640 medium) was added to each micowell. The cultures were returned to the incubator for 2±0.1 hours. Then the medium was removed from each well and placed into a clean microwell plate for temporary storage. A volume of 0.1 ml of color development solution (Solution C, isopropanol with 0.04M HCl, Chemicon MTT Assay kit, Chemicon International Inc., Temecula, Calif.) was added to each new microwell. The contents were carefully mixed and allowed to sit at room temperature for approximately 1 hour. The medium that was saved from each microwell then was pipetted back into the well from which it originally came. […]

bacterial growth = details: Osada and Isono 1985; cited from earlier work

Row | Compound | IC50 [1] | IC50 [2] | mortality ([3]; i.p. 100 mg/kg (group 2)) | 95% confidence limit of the LD50 ([3]; mouse, in vivo, ip) | LD50 at 168 h ([3]; mouse, in vivo, ip) | tolerability ([3]; mouse, in vivo, ip) | body weight loss after injection ([3]; mouse, in vivo, ip, 20 mg/kg) | symptoms after dosing ([3]; mouse, in vivo, ip, 20 mg/kg) | symptoms after dosing ([3]; mouse, in vivo, ip, 100 mg/kg) | penetration of target tissue, epidermis [4] | IC50 [5] | inhibition of bacterial growth (bacterial growth)
1 | Nc1ncnc2c1ncn2[C@@H]1O[C@H](CNS(=O)(=O)NC(=O)[C@@H](N)Cc2ccccc2)[C@@H](O)[C@H]1O [Compound XIV, 5'-deoxy-adenosine 5'-N-(N-L-phenylalanyl)sulfamide] | 5.58 µM | 5 nM | Most of the group 2 mice died between 8 to 24 hours after injection | 24 to 63 mg/kg | 44 mg/kg | a high dose of Compound XIV was tolerated | about 10% | no unusual symptoms observed | showed loose hair starting at 3-4 hours after dosing and they also lost their appetite and became less active | penetrates the target tissue, epidermis, in significant concentration at 6 hours and levels are generally increased at 24 hours | 0.53 µM | –
2 | C[C@H](N)C(=O)NS(=O)(=O)OC[C@H]1O[C@@H](n2cnc3c(N)nc(Cl)nc32)[C@H](O)[C@@H]1O [ascamycin] | – | – | – | – | – | – | – | – | – | – | – | ineffective inhibitor against bacterial growth

— patent US5824657A, “Aminoacyl sulfamides for the treatment of hyperproliferative disorders” (priority 1997, dated 1998)
